Assay results reported in patent US5380729A, “12-hetero substituted 6,11-ethano-6,11-dihydrobenzo (b) quinolizinium salts and compositions and method of use thereof” (Sterling Winthrop Inc., priority 1993, dated 1995).

Columns and labels:
[1] = system: NMDA-induced neurotoxicity in cultured cortical neurons; assay: Antagonism of NMDA-induced neurotoxicity in cultured neurons (LDH release); format: cell-based, mouse (Swiss-Webster); conditions: 500 μM NMDA, 30 minutes, LDH activity at 24 hours, mouse cortical neurons
Description: Antagonism of NMDA-induced Neurotoxicityin Cultured Neurons
Preparation of Cultured Cortical Neurons
Pregnant, Swiss-Webster mice were obtained from Taconic Farms (Germantown, New York) and sacrificed 16 days post conception. Fetuses were removed and placed in a sterile dish containing Hank's balanced salt solution (HBSS), pH 7.4. Brain cortices were dissected, meninges were removed, the tissue was minced and placed into a solution of HBSS containing 0.25% (w/v) trypsin at 37° C. for 15 minutes. Tissue was then triturated with a sterile pasteur pipet, diluted with minimal essential media (Gibco 330-1430), pH 7.4, supplemented with 10% horse serum, 10% fetal calf serum, 2 mM 1-glutamine, 21 mM d-glucose, 2.2 g/L sodium bicarbonate, 1000 u/ml penicillin, and 1,000 μg/ml streptomycin. Cells were plated onto Falcon primaria 96 well plates at a final density of 50,000 cells/well and incubated at 37° C. in the presence of 5% (v/v) carbon dioxide. After 5 days, plating media was replaced with maintenance media containing minimal essential media (Gibco 330- 1430), pH 7.4, supplemented with 10% horse serum, 10% 1-glutamine, 21 mM d-glucose, 2.2 g/l sodium bicarbonate,1,000 U/ml penicillin, 1,000 μg/ml streptomycin, and 10 μM cytosine arabinoside. On days 7 and 10, media was replaced with maintenance media as above lacking the cytosine arabinoside. Experiments were conducted on day 13.
Neuroprotection Assessment
Day 13 cultured cortical neurons were washed twice with minimal essential media, pH 7.4 and then exposed for 30 minutes to 500 μM N-methyl-D-aspartic acid (NMDA) with or without varying concentrations of test agents. Dizocilpine (MK-801) at a final concentration of 10 μM MK-801 was routinely included as a positive control. MK-801 and test agents were prepared in minimal essential media supplemented with 21 mM d-glucose and 2.2 g/L sodium bicarbonate (MEM). After 30 minutes, media was replaced with MEM alone. Exposure of neurons to test agents was limited to the NMDA treatment period. Twenty-four hours after removal of NMDA, an aliquot of media from each well was removed for assessment of cell injury by determining lactate dehydrogenase (LDH) activity by. the method of Wroblewski and LaDue Proc. Soc. Exp. Biol. Med. 1955, 90, 210-213. The results are expressed as an IC50 (in nM) value (concentration causing 50% inhibition) for the antagonism of NMDA--inducedneurotoxicity.

[2] = target: PCP recognition sites; assay: [3H]TCP Radioreceptor Assay (internal screen); format: binding, rat (male Sprague-Dawley; conditions: rat whole brain membranes, room temperature, 25 min; for Ki: ~1 nM [3H]TCP; for Percent inhibition, [3H]TCP (internal screen): @ 10 μM
Description: [^3 H]TCP Radioreceptor Assay (internal screen)
[^3 H]TCP binding to PCP recognition sites was performed as described by Vignon et al. Brain Research 1983, 280, 194°197. Male Sprague-Dawley rats were sacrificed by decapitation, and whole brains were homogenized in 10 volumes (wt/vol) of cold Tris-HCl buffer (50 mM, pH 7.7) using a Brinkmann Polytron (setting 6, 30 sec). The homogenate was centrifuged at 40,000×g for 10 min at 4° C. The supernatant was decanted, and the homogenization and centrifugation steps were repeated twice as described above. Following this, the pellet was resuspended in Tris-HCl (5 mM, pH 7.7) at a tissue concentration of 0.5°0.75 g/ml, and one ml aliquots were frozen at -70° C. until use. The binding characteristics for PCP recognition sites were not altered by the freezing of membrane suspensions.
On the day of the assay, membrane aliquots were thawed, resuspended in fresh 5 mM Tris-HCl buffer at a tissue concentration of 1 mg/ml, and stored on ice until use. Each assay tube contained 100 μl of [^3 H]TCP at a final concentration of approximately 1 nM, 100 μl of various concentrations of the compounds of interest, 500 μl of the tissue suspension and 300 of buffer to a final assay volume of 1 ml and a final protein concentration of 0.5 mg/tube. Non-specific binding was defined by addition of a final concentration of 100 μM PCP to blank tubes. All tubes were incubated at room temperature for 25 min before termination of the reaction by rapid filtration over Whatman GF/B glass fiber filters that had been presoaked in a solution of 0.5% polyethylenimine for at least 1 hr prior to use. Filters were washed with three 4 ml volumes of cold Tris buffer. Following addition of scintillation cocktail, the amount of bound radioactivity was determined by liquid scintillation spectrometry using a Beckman LS 5000TA liquid scintillation counter with an efficiency for tritium of approximately 55% . Inhibition constants (Ki values) were calculated using the EBDA/LIGAND program (McPherson, J. Pharmacol. Meth. 1985, 14, 213-228), purchased from Elsevier/Biosoft, Inc. Results are reported as Ki values or as a percent (%) inhibition of binding at 10

CCOC1(OCC)C2(C)c3ccccc3C([n+]3ccccc32)C1(C)C.[O-][Cl+3]([O-])([O-])[O-] (stereo not shown) [Example 51, 6,11-ethano-12,12-diethoxy-13,13-dimethyl-11-methyl-6,11-dihydrobenzo[b]quinolizinium perchlorate]
IC50 ([1]; Cortical neurone): 32.4 nM | Ki [2]: 11.3 nM

CCOC1(OCC)C2c3cc([N+](=O)[O-])ccc3C([n+]3ccccc32)C1(C)C.[O-][Cl+3]([O-])([O-])[O-] (stereo not shown) [Example 46, 6,11-ethano-12,12-diethoxy-13,13-dimethyl-9-nitro-6,11-dihydrobenzo[b]quinolizinium perchlorate]
IC50 [1]: 15300 nM | Ki [2]: 2760 nM

CCOC1(OCC)C2c3cc(Br)ccc3C([n+]3ccccc32)C1(C)C.[O-][Cl+3]([O-])([O-])[O-] (stereo not shown) [Example 35, 6,11-ethano-12,12-diethoxy-13,13-dimethyl-9-bromo-6,11-dihydrobenzo[b]quinolizinium perchlorate]
IC50 [1]: 173 nM | Ki [2]: 61.5 nM

CCOC1(OCC)C2c3ccccc3C(C1C)[n+]1ccccc12 (single isomer, unassigned) [Example 37, 6,11-ethano-12,12-diethoxy-13-methyl-6,11-dihydrobenzo[b]quinolizinium]
IC50 ([1]; Cortical neurone): 810 nM

CCOC1(OCC)CC2c3ccccc3C1c1cccc[n+]12 (stereo not shown) [28(b), 6,11-ethano-12,12-diethoxy-6,11-dihydrobenzo[b]quinolizinium chloride]
IC50 ([1]; Cortical neurone): 95500 nM | Ki [2]: 4270 nM

CCOC1(OCC)C2c3ccccc3C([n+]3ccccc32)C1(C)C (single isomer, unassigned) [Example 13(c), 12,12-diethoxy-13,13-dimethyl-6,11-ethano-6,11-dihydrobenzo[b]quinolizinium chloride-1/2-3/4 hydrate]
IC50 ([1]; Cortical neurone): 50 nM | Ki ([2]; hydrate): 11 nM

CCCOC1(OCCC)C2c3ccccc3C([n+]3ccccc32)C1(C)C.[O-][Cl+3]([O-])([O-])[O-] (stereo not shown) [Example 39, 6,11-ethano-12,12-dipropoxy-13,13-dimethyl-6,11-dihydrobenzo[b]quinolizinium perchlorate]
IC50 [1]: 85 nM | Ki [2]: 11.5 nM

CCOC1(OCC)C2c3ccccc3C([n+]3ccccc32)C1(C)C [Example 5, 12,12-diethoxy-13,13-dimethyl-6,11-ethano-6,11-dihydrobenzo[b]quinolizinium (S)-(+)-CH3 C(Ph)(OH)CO2^-]
Ki [2]: 5.25 nM

CCN(CC)C1C2c3ccccc3C(C1C)[n+]1ccccc12 (stereo not shown) [Example 62, 6,11-ethano-12-(diethyl) amino-13-methyl-6,11-dihydrobenzo[b]quinoliziniumperchlorate]
Ki [2]: 12200 nM

CCOC1(OCC)C2c3c(OC(C)C)cccc3C([n+]3ccccc32)C1(C)C (stereo not shown) [34(b), 6,11-ethano-12,12-diethoxy-13,13-dimethyl-10-isopropoxy-6,11-dihydrobenzo[b]quinolizinium chloride]
Ki [2]: 47.5 nM

CCOC1(OCC)C2c3ccccc3C([n+]3cccc(OC)c32)C1(C)C.[O-][Cl+3]([O-])([O-])[O-] (stereo not shown) [Example 33, 6,11-ethano-12,12-diethoxy-13,13-dimethyl-1-methoxy-6,11-dihydrobenzo-[b]quinolizinium perchlorate]
Ki [2]: 25.8 nM

CCOC1(OCC)C2c3ccccc3C([n+]3ccccc32)C1(OCC)OCC (stereo not shown) [Example 8, 12,12,13,13,-tetraethoxy-6,11-ethane-6,11-dihydrobenzo[b]quinolizinium perchlorate]
Ki [2]: 5180 nM

CCOC1(OCC)C2c3ccccc3C([n+]3c(C)cccc32)C1(C)C (stereo not shown) [27(b), 6,11-ethano-12,12-diethoxy-13,13-dimethyl-4-methyl-6,11-dihydrobenzo[b]quinolizinium chloride]
Ki [2]: 314 nM

C[C@@H]1C[C@@H](C)OC2(O1)C1c3ccccc3C([n+]3ccccc31)C2(C)C (single isomer, unassigned) [Example 10(c)]
Ki [2]: 365 nM

CCOC1(OCC)C2c3ccccc3C([n+]3ccccc32)C1(CC)CC (stereo not shown) [17(c), 12,12-diethoxy-13,13-diethyl-6,11-ethano-6,11-dihydrobenzo[b]quinoliziniumperchlorate]
Ki [2]: 10.6 nM

CCOC1(OCC)C(C)C2c3ccccc3C1(C)c1cccc[n+]12.[O-][Cl+3]([O-])([O-])[O-] (stereo not shown) [63(l), 11-Methyl-12,12-diethoxy-13-methyl-6,11-ethano-6,11-dihydrobenzo[b]quinolizinium perchlorate]
Ki [2]: 39.3 nM

CCOC1(OCC)C2c3ccccc3C(C1Cl)[n+]1ccccc12 (single isomer, unassigned) [Example 42, 6,11-ethano-12,12-diethoxy-13-chloroquinolizinium perchlorate]
Ki [2]: 319 nM

COC1(OC)C2c3ccccc3C([n+]3ccccc32)C1(C)C.[O-][Cl+3]([O-])([O-])[O-] (stereo not shown) [63(m), 12,12-dimethoxy-13,13-dimethyl-6,11-ethano-6,11-dihydrobenzo[b]quinolizinium perchlorate]
Ki [2]: 111 nM

CCOC1(OCC)C2c3c(C)cccc3C([n+]3ccccc32)C1(C)C.[O-][Cl+3]([O-])([O-])[O-] (stereo not shown) [Example 47, 6,11-ethano-12,12-diethoxy-13,13-dimethyl-10-methyl-6,11-dihydrobenzo[b]quinolizinium perchlorate]
Ki [2]: 45.5 nM

12,12-Diethylamino-13-phenyl-6,11-ethano-6,11-dihydrobenzo[b]quinolizinium perchlorate [63(j)]
Ki [2]: 14400 nM

CC(=O)Oc1ccc(C(C)(C)C)c2c1C1[n+]3ccccc3C2C2(O[C@H](C)[C@@H](C)O2)C1(C)C (stereo partly drawn) [Example 56, 6,11-ethano-12,12-(2R,3R-butanediolketal)-13,13-dimethyl-7-acetoxy-10-t-butyl-6,11-dihydrobenzo[b]quinolizinium perchlorate]
Percent inhibition, [3H]TCP (internal screen) [2]: 24%

CCOC1(OCC)C2c3cc(C(F)(F)F)ccc3C([n+]3ccccc32)C1(C)C (stereo not shown) [23(b), 6,11-ethano-12,12-diethoxy-13,13-dimethyl-9-trifluoromethyl-6,11-dihydrobenzo[b]quinolizinium chloride]
Ki [2]: 407 nM

C[C@@H]1C[C@@H](C)OC2(O1)C1c3ccccc3C([n+]3ccccc31)C2(C)C (stereo partly drawn) [Example 45, 6,11-ethano-12,12-(2R,4R-pentanediolketal)-13,13-dimethyl-6,11-dihydrobenzo[b]quinolizinium perchlorate]
Ki [2]: 517 nM

CCOC1(OCC)C2c3cc(OC)ccc3C([n+]3ccccc32)C1(C)C (single isomer, unassigned) [20(c), 9-methoxy-12,12-diethoxy-13,13-dimethyl-6,11-ethano-6,11-dihydrobenzo[b]quinolizinium chloride]
Ki [2]: 7.05 nM

CC(=O)Oc1ccc(C(C)(C)C)c2c1C1[n+]3ccccc3C2C2(O[C@H](C)C[C@@H](C)O2)C1(C)C (stereo partly drawn) [Example 57, 6,11-ethano-12,12-(2R,4R-pentanediolketal)-13,13-dimethyl-7-acetoxy-10-t-butyl-6,11-dihydrobenzo[b]quinolizinium perchlorate]
Percent inhibition, [3H]TCP (internal screen) [2]: 18%
